We go through one compound from paper PMC8258697 (The Journal of Biological Chemistry, 2021).

In experiment [1] the target is T1, RXRα wildtype LBD (Homo sapiens, UniProt P19793).
T1 construct: MBP-Asn10-His8-TEV site (N, cleaved yes); made in house; host or cells: E. coli T7 express (co-expressed with GroEL/ES)
T1 sequence (P19793 223-462): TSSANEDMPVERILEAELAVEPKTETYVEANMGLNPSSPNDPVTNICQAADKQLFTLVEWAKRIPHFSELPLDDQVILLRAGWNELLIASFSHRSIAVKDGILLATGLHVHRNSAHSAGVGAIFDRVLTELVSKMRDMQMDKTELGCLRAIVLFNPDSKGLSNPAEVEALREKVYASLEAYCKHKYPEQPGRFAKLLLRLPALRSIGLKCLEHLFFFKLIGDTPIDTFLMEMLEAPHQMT
Put plainly: Isothermal titration calorimetry, RXRα wildtype LBD. Particulars: 25°C. The class given is binding. Here is the method: (§1) SI method 1: LBD pulldown
(§2) In order to verify proper dimer formation capability of the majority of the protein preparation a pulldown experiment was performed. Therefore, small centrifugal filter columns (nylon membrane with […] pore size; VWR) were loaded with 20 µl of Pierce® high capacity streptavidin agarose beads (Thermo Scientific) equilibrated in HTRF buffer [25 mM HEPES pH 7.5, 150 mM KF, 10% (w/v) glycerol, 5 mM DTT (fresh)], then 20 µl of a mixture of biotin coupled RXRα LBD (4 µg) and the respective PPAR LBD (1.4 µg) was applied. After incubation for 10 min at room temperature followed by centrifugation for 2 min and 900 x g the input mixture as well as the flowthrough was analyzed via SDS PAGE. Gels were scanned using an Li-Cor Odyssey imager (LI-COR® Biosciences GmbH, Germany). […]
(§3) The heats of dilution resulting from titrating one of the RXRα LBD proteins into the cell containing only buffer were recorded separately and subtracted from the raw ITC data obtained with compound. Data were analyzed using the NanoAnalyze software package (version 3.7.5). […] Free energy change (ΔG) was calculated using the equation […]
(§4) and from there the entropy (ΔS) was calculated from […]
25 injections of 2 µl were performed after an initial injection of 0.5 µl. […] The heats of dilution resulting from titrating of protein into buffer were recorded separately and subtracted. […]
Background: Isothermal titration calorimetry measures the heat released or taken up as one component is titrated into another.

The target in experiment [2] is T2, RXRα total mutant LBD (Homo sapiens, UniProt P19793, E453R/F450Y/K284E/V280T/V298T).
T2 construct: MBP-Asn10-His8-TEV site (N, cleaved yes); made in house; host or cells: E. coli T7 express (co-expressed with GroEL/ES)
T2 sequence (P19793 223-462 V280T/K284E/V298T/F450Y/E453R): T1 sequence (P19793 223-462) with V58T, K62E, V76T, F228Y, E231R
Put plainly: Isothermal titration calorimetry, RXRα total mutant LBD. The class given is binding. The conditions noted are these: 25°C. Here is the method:
as §1
as §2, with “Germany). Missing bands in comparison to the input control were interpreted in two different ways.” for “Germany).”
as §3, §4
µM SR11237. […] The heats of dilution resulting from titrating of protein into buffer were recorded separately and subtracted. […]

For experiment [3], the target named is T3, RXRα LBD mutant (Homo sapiens, UniProt P19793, E453R/F450Y/K284E/V280T/V298T).
T3 construct: His10-tag with TEV site (N, cleaved yes); made in house; host or cells: E. coli T7 express (co-expressed with GroEL/ES)
T3 sequence (P19793 226-462 V280T/K284E/V298T/F450Y/E453R): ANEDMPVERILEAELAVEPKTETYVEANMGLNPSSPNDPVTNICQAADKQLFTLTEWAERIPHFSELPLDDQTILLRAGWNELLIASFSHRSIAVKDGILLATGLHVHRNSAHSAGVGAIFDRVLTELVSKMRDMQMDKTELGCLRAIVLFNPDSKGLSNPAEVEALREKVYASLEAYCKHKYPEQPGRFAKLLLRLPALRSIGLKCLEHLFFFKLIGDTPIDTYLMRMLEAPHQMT
Put plainly: NCOR1 corepressor displacement HTRF assay on sGFP-RXRα mutant LBD. The conditions noted are these: 100 nM sGFP-RXRα mutant LBD, 12 nM NCOR1 ID2. Format: biochemical.

Experiment [4] has as its target T4, PPARγ LBD (Homo sapiens, UniProt P37231).
T4 construct: His10-tag with TEV site (N, cleaved yes); made in house; host or cells: E. coli T7 express (co-expressed with GroEL/ES)
T4 sequence (P37231 234-505): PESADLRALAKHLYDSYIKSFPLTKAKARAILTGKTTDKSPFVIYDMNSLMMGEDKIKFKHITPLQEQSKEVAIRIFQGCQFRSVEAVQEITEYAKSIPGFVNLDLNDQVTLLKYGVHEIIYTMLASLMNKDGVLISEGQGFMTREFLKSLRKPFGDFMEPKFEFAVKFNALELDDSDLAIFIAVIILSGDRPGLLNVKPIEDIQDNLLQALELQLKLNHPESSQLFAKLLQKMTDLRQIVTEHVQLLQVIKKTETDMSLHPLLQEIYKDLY
Nature of the experiment: Monomer cofactor recruitment HTRF assay: CBP-1 recruitment by isolated sGFP-PPARγ LBD. The class given is biochemical. The conditions noted are these: titrated alone, or constant 10 μM against titrated rosiglitazone. (Time-resolved FRET reads energy transfer from a long-lived donor to a nearby acceptor.)

For experiment [5], the target named is T5, RXRα homodimer (Homo sapiens, UniProt P19793).
T5 construct: His10-tag with TEV site (N, cleaved yes); made in house; host or cells: E. coli T7 express (co-expressed with GroEL/ES)
T5 sequence (P19793 226-462) 1: T3 sequence (P19793 226-462 V280T/K284E/V298T/F450Y/E453R) with T55V, E59K, T73V, Y225F, R228E
T5 sequence (P19793 226-462) 2: T3 sequence (P19793 226-462 V280T/K284E/V298T/F450Y/E453R) with T55V, E59K, T73V, Y225F, R228E
Put plainly: RXRα homodimer formation HTRF assay, sGFP-RXRα LBD titrated against biotinylated RXRα LBD (wildtype). Format: binding. The conditions noted are these: 10 μM ligand compared with no ligand.

Residue numbers refer to the chain shown, from its start.

With `CC1(C)CCC(C)(C)c2cc(C3(c4ccc(C(=O)O)cc4)OCCO3)ccc21` [SR11237], the “binding affinity (ITC)” value in experiment [1] and in experiment [2] was “comparable affinity” throughout. The “effect on NCOR1 corepressor binding” value in experiment [3] is recorded as “Agonist dependent displacement of NCOR1”. Further, in experiment [4], the “effect on CBP-1 recruitment by isolated PPARγ LBD” value is “neither activated recruitment of CBP-1 by PPARγ nor impaired rosiglitazone-mediated recruitment”. Also, the “effect on RXRα homodimer formation” value in experiment [5] was “significantly destabilized the homodimer”.
